From patent US20060041016A1, “Composition and method for the treatment of psoriasis” (priority 2004, published 2006)

Tests used:
eye = conditions: tested in the form of an isopropyl ester prodrug; cited from earlier work
[1] = tested on: Normal human epithelial keratinocytes; assay: Antiproliferative effect on cultured keratinocytes, crystal violet method, absorbance at 595 nm; assay type: cell-based; conditions: for antiproliferative potency relative to PGA2 and the other analogues: normal human epithelial keratinocytes, 7 days incubation, FIG. 1-4
Experimental: Normal human epithelial keratinocytes, and keratinocyte growth medium (KGM^R-2 Bulletkit; CC-3107 from Clonetics, USA) were purchased from Göteborgs Termometerfabrik AB (Västra Frölunda, Sweden). The cells were cultured at 37° C. in 5% CO2 humidified air according to standard procedure. The cells used for the experiments were at the third passage. 48-well plates were used for the cultures. In each well about 3000 cells were seeded. For each concentration of prostaglandin analogues two wells were used. After completion of the incubation, the wells were washed twice with phosphate buffered saline (PBS). Thereafter the cells were fixed with 1% glutaraldehyde in PBS at +4° C. for 15 min. The wells were then again washed twice with PBS, and thereafter treated with 0.1% crystal violet solution (500 μl/well). The wells were then rinsed with distilled water for 15 sec, three times, and were left to dry completely. The absorbed colour was solubilized in 500 μl 2.5% sodiumdodecyl-sulphate (SDS) in distilled water for 3 hours. The absorbance of the fluid in the wells was determined using a microtiter well spectrophotometer (Multiscan RC V1.3-0) at 595 nm. The experiments were performed in duplicate (two wells). The incubation time was 7 days, and the incubation medium was changed after 3-4 days. The prostaglandin analogues were dissolved directly in the incubation medium. After appropriate incubation the density of cells in the wells was determined using the crystal violet method described above.

human keratinocytes = assay: Intravital staining with propidium-iodide/Hoechst 33342 for apoptosis/necrosis; assay type: cell-based; conditions: keratinocytes exposed for 7 days
Experimental: In another set of experiments, intravital staining for detection of apoptosis/necrosis in keratinocytes cultivated as above in the absence and presence of BR280 (17-phenyl-18,19,20-trinor-PGA2) was performed with propidium-iodide/Hoechst 33342 (bisbenzimide) purchased from Sigma Chemical Company (St. Louis, Mo.). A mixture of propidium-iodide (10 μg/ml) and Hoechst 33342 (5 μg/ml) was added to the culture medium. The cells were incubated in the medium for 10 min at 37° C. The medium was harvested for free floating cells while the attached cells were washed once with Ca^++/Mg^++ free Hanks solution (Sigma Chemical Company), or PBS. Thereafter 1.5 ml of a 0.5% trypsin/EDTA solution (Ca^++/Mg^++ free Hanks solution, or PBS) was added and incubation was carried out for 5 min at 37° C. The solution was then centrifuged for 1 min (500 g). The pellet was resuspended in 0.5 ml PBS, and the solution was centrifuged as above. The pellet was then suspended in 20 μl PBS, and the solution containing the cells was placed on a microscopic slide with cover slip. The cells were examined in a Nikon FTX fluorescence microscope equipped with a UV-2A filter and camera. Colour photographs were taken of representative cells. The prostaglandin analogue (BR280) was diluted directly in the culture medium. […]

[2] = tested on: BAX gene expression (BAX-protein) in human keratinocytes; assay: Expression of the pro-apoptotic BAX gene by immunocytochemistry; assay type: cell-based
Experimental: The cells, cultivated essentially as described above, were trypsinized, the solution centrifuged, and the pellet resuspended and transferred to a microscopic slide with cover slip. Immunocytochemistry was performed according to standard technique. BAX (N-20)-affinity purified rabbit polyclonal antibodies were purchased from Santa Cruz Biotechnology Inc. (Santa Cruz, Calif.), and used at a dilution of 1:200. Secondary goat-antirabbit antibodies conjugated to horseradish peroxidase (Dako Envision+TM) obtained from Dako (Carpinteria, Calif., USA) were used for detecting the primary antibodies. After appropriate rinsing the preparations were incubated with […] as chromogenic substrate for the horseradish peroxidase for 10 min at room temperature. […] The preparations were finally examined in a Nikon FTX fluorescence microscope equipped with camera, and colour photographs were taken of representative cells.
In another set of experiments, intravital staining for detection of apoptosis/necrosis in keratinocytes cultivated as above in the absence and presence of BR280 (17-phenyl-18,19,20-trinor-PGA2) was performed with propidium-iodide/Hoechst 33342 (bisbenzimide) purchased from Sigma Chemical Company (St. Louis, Mo.). […] The cells were examined in a Nikon FTX fluorescence microscope equipped with a UV-2A filter and camera. […]

human eye = assay: Hyperemia/irritation test using the human eye as a model; assay type: in vivo; conditions: for hyperemia and ocular irritation or pain after application (in words): human eye, topical, 3 individuals, about 10^−4 M and about 3×10^−4 M; for Difference in irritation PGA2 - JB991 acid / Difference in hyperemia PGA2 - JB991 acid: topical on eye, n = 3; for Difference in irritation PGA2 - JB991 acid: categorical scale, Mean ± SEM; for Difference in hyperemia PGA2 - JB991 acid: scale 0-3, Mean ± SEM
Experimental: PGA2 and 17-phenyl-18,19,20-trinor-PGA2, synthesized as described above, were formulated in vehicles suitable for hyperemia/irritation tests using the human eye as a model. The superficial redness of the eyes was documented by colour photographs before, and 15, 30, 60 and 120 min after application of the test substances. One eye was treated with the prostaglandin analogue and the other eye with the vehicle only. Ocular irritation or pain was recorded at the same time points. The two test substances at a concentration of 26 μg/ml (about 10^−4 M) were tested in the same eye of three healthy individuals a few days apart.
About a week later, a higher concentration of each compound, 84 μg/ml of PGA2 and 96 μg/ml of 17-phenyl-18,19,20-trinor-PGA2 (both concentrations corresponding to about 3×10^−4 M) was again tested a few days apart in the same eyes of the same individuals. The concentrations used are relevant since for the treatment of psoriasis the drugs have to be used at approximately this concentration range. The hyperemia was evaluated on a scale from 0 (no hyperemia) to 3 (maximum hyperemia) using half steps. A similar categorical scale was used for the ocular irritation or pain. […]

[3] = Dose 2 (84 μg/ml; JB991 acid 96 μg/ml), 0 min
[4] = Dose 2 (84 μg/ml; JB991 acid 96 μg/ml), 15 min
[5] = Dose 2 (84 μg/ml; JB991 acid 96 μg/ml), 30 min
[6] = Dose 2 (84 μg/ml; JB991 acid 96 μg/ml), 60 min
[7] = Dose 2 (84 μg/ml; JB991 acid 96 μg/ml), 120 min

**Q.** For O=C(O)CCC/C=C\CC1C(=O)C=CC1CCC(O)CCc1ccccc1 (stereo not drawn), which “hyperemia in the eye” value (eye) is on record?
**A.** caused some hyperemia in the eye

**Q.** Which “antiproliferative potency relative to PGA2 and the other analogues” value [1] does the source give for O=C(O)CCC/C=C\CC1C(=O)C=CC1/C=C/C(O)COc1cccc(C(F)(F)F)c1 (stereo not drawn) [BR277, 16-phenoxy-(3-trifluormethyl)-17,18,19,20-tetranor-PGA2] here?
**A.** next most potent of the PGA2 analogues

**Q.** For O=C(O)CCC/C=C\CC1C(=O)C=CC1CCC(O)CCc1ccccc1 (stereo not drawn) [BR278, 13,14-dihydro-17-phenyl-18,19,20-trinor-PGA2], which “antiproliferative potency relative to PGA2 and the other analogues” value [1] is on record?
**A.** lowest potency

**Q.** Which “signs of apoptosis by intravital staining” value (human keratinocytes) does the source give for O=C(O)CCC/C=C\CC1C(=O)C=CC1/C=C/C(O)CCc1ccccc1 (stereo not drawn) [BR280, 17-phenyl-18,19,20-trinor-PGA2] here?
**A.** Markedly condensed and fragmented nuclei and apoptotic bodies could be demonstrated

**Q.** What about the “antiproliferative potency relative to PGA2 and the other analogues” value [1] of the same compound?
**A.** even more potent than PGA2

**Q.** What about the “BAX gene expression (BAX-protein) immunostaining” value ([2]; human keratinocytes exposed at different concentrations, 2 days incubation) of the same compound?
**A.** could be demonstrated

**Q.** And the “BAX gene expression effect at low concentrations” value ([2]; lower concentrations than 10^−5 M)?
**A.** weak or absent

**Q.** And the “hyperemia and ocular irritation or pain after application (in words)” value (human eye)?
**A.** no hyperemic effect or irritative effect whatsoever

**Q.** With CCCCC[C@H](O)/C=C/[C@H]1C=CC(=O)[C@@H]1C/C=C\CCCC(=O)O [PGA2, prostaglandin A2] as the compound, how does the complete cell death ([1]; highest concentration tested) read?
**A.** Neither PGA2 nor any of the analogues tested were able to cause complete cell death

**Q.** And the “Difference in irritation PGA2 - JB991 acid” value (shortened to “Difference in irritation PGA2”) (human eye; Dose 1 (26 μg/ml), 0 min)?
**A.** 0.00 ± 0.00

**Q.** And the “Difference in hyperemia PGA2 - JB991 acid” value (shortened to “Difference in hyperemia PGA2”) (human eye; Dose 1 (26 μg/ml), 0 min)?
**A.** 0.00 ± 0.00

**Q.** What about the “Difference in irritation PGA2” value (human eye; Dose 1 (26 μg/ml), 15 min) of the same compound?
**A.** 1.00 ± 0.29

**Q.** What about the “Difference in hyperemia PGA2” value (human eye; Dose 1 (26 μg/ml), 15 min) of the same compound?
**A.** 1.33 ± 0.60

**Q.** And the “Difference in irritation PGA2” value (human eye; Dose 1 (26 μg/ml), 30 min)?
**A.** 1.17 ± 0.33

**Q.** What about the “Difference in hyperemia PGA2” value (human eye; Dose 1 (26 μg/ml), 30 min) of the same compound?
**A.** 1.17 ± 0.44

**Q.** And the “Difference in irritation PGA2” value (human eye; Dose 1 (26 μg/ml), 60 min)?
**A.** 0.50 ± 0.29

**Q.** What about the “Difference in hyperemia PGA2” value (human eye; Dose 1 (26 μg/ml), 60 min) of the same compound?
**A.** 0.67 ± 0.44

**Q.** What about the “Difference in irritation PGA2” value (human eye; Dose 1 (26 μg/ml), 120 min) of the same compound?
**A.** 0.17 ± 0.17

**Q.** What about the “Difference in hyperemia PGA2” value (human eye; Dose 1 (26 μg/ml), 120 min) of the same compound?
**A.** 0.17 ± 0.17

**Q.** What about the “Difference in irritation PGA2” value (human eye; [3]) of the same compound?
**A.** 0.00 ± 0.00

**Q.** What about the “Difference in hyperemia PGA2” value (human eye; [3]) of the same compound?
**A.** 0.00 ± 0.00

**Q.** And the “Difference in irritation PGA2” value (human eye; [4])?
**A.** 1.83 ± 0.44 *)

**Q.** And the “Difference in hyperemia PGA2” value (human eye; [4])?
**A.** 2.17 ± 0.44 **)

**Q.** And the “Difference in irritation PGA2” value (human eye; [5])?
**A.** 1.33 ± 0.60

**Q.** What about the “Difference in hyperemia PGA2” value (human eye; [5]) of the same compound?
**A.** 2.17 ± 0.44 **)

**Q.** What about the “Difference in irritation PGA2” value (human eye; [6]) of the same compound?
**A.** 0.83 ± 0.44

**Q.** What about the “Difference in hyperemia PGA2” value (human eye; [6]) of the same compound?
**A.** 1.33 ± 0.60

**Q.** And the “Difference in irritation PGA2” value (human eye; [7])?
**A.** 0.33 ± 0.17

**Q.** And the “Difference in hyperemia PGA2” value (human eye; [7])?
**A.** 0.50 ± 0.29

**Q.** What about the “hyperemia and ocular irritation or pain after application (in words)” value (human eye) of the same compound?
**A.** causes both these disadvantageous side-effects
